Measured values as given in patent publication US4056626A, “Pharmaceutical composition containing benzofuran derivative” (Kakenyaku Kako Co., Ltd., priority 1971, dated 1977).
Where “and” joins values, the source holds several entries; their conditions need not be identical. Identical values can stand only once. Like-named read-outs stand apart in the source and are kept apart here.

Columns and labels:
[1] = system: isoproterenol antagonism concerning myocardial contractile force and heart rate in isolated guinea-pig atria; assay: isoproterenol antagonism in isolated guinea-pig atria; conditions: for Inhibition of increase in heart rate ED 50 / Inhibition of increase in myocardial contractile force ED 50: 37° C., isoproterenol 1 × 10^-8 g./ml., 50% inhibition; for Inhibition of increase in heart rate, relative activity / Inhibition of increase in myocardial contractile force, relative activity: activity of Propranolol is 1
Description: Isolated guinea-pig atrium was mounted in a chamber containing Ringer-Lockesolution (37° C.), through which a mixed gas of 95% O2 and 5% CO2 was continuously bubbled. Isoproterenol was added to the solution at a concentration of 1 × 10^-^8 g./ml.

in vivo = conditions: mouse, iv
[2] = system: isoproterenol antagonism concerning myocardial contractile force, heart rate and diastolic blood pressure; assay: isoproterenol antagonism in anesthetized dogs; type: in vivo; conditions: for ED50: Canis lupus familiaris, iv; for Inhibition of decrease in diastolic blood pressure, relative activity / Inhibition of increase in heart rate, relative activity / Inhibition of increase in myocardial contractile force, relative activity: activity of Propranolol is 1
Description: Male and female dogs weighing 9 kg. to 20 kg. were employed. The dogs were anesthetized with barbital sodium (30 mg./kg.) given intraperitoneally. The compounds to be tested and isoproterenol were administered in femoral vein through a canula.
The maximum increase was adopted as the increase in myocardial contractile force. The increase after 1 minute from the administration of isoproterenol was adopted as the increase in heart rate. The maximum decrease was adopted as the decrease in diastolic blood pressure. Then, the compounds to be tested were administered in a dose of 0.01 to 100 μg./kg. After an interval of 2 minutes, isoproterenol was again administered in a dose of 0.3 μg./kg. After the second administration of isoproterenol, the maximum increase in myocardial contractile force, the increase after 1 minute from the administration of isoproterenol in heart rate and the maximum decrease in diastolic blood pressure were again determined.

[3] = system: tachycardia in hyperthyroidism; assay: clinical study: tachycardia in hyperthyroidism, single administration; type: in vivo, patients; conditions: Mercazol reference, oral 30 mg./day, 14 days
Description: A. A therapeutic effect of the present pharmaceutical composition to tachycardia in hyperthyroidism in case of its signle administration was investigated.
To 12 patients of hyperthyroidism shown in Table VI was orally administered the active ingredient, 2-acetyl-7-(2-hydroxy-3-isopropylaminopropoxy)benzofuran hydrochloride, contained in the capsules obtained in Example 47 in a dose of 30 mg./day (3 times per day) for 14 days. The treatment evaluation was determined according to the following standard:
For reference, a therapeutic effect of an antihyperthyroidism medicament to tachycardia in hyperthyroidism in case of its single administration was investigated.
To 12 patients of hyperthyroidism shown in Table VII was orally administered Mercazol which has been widely employed as an antihyperthyroidism medicament in a dose of 30 mg./day for 14 days.

[4] = anesthetized dogs, femoral vein, isoproterenol 0.3 μg./kg., 50% inhibition, read-out: Inhibition of decrease in diastolic blood pressure ED50
[5] = anesthetized dogs, femoral vein, isoproterenol 0.3 μg./kg., 50% inhibition, read-out: Inhibition of increase in heart rate ED50
[6] = anesthetized dogs, femoral vein, isoproterenol 0.3 μg./kg., 50% inhibition, read-out: Inhibition of increase in myocardial contractile force ED50

With `CC(=O)c1cc2cccc(OCC(O)CNC(C)(C)C)c2o1` (stereo not shown) [Compound No. 4, 2-acetyl-7-(2-hydroxy-3-tert.-butylaminopropoxy)benzofuran] the “Inhibition of increase in heart rate ED 50” value [1] was 33 ng/mL, the “Inhibition of increase in myocardial contractile force ED 50” value [1] was 4 ng/mL and the “Inhibition of increase in heart rate, relative activity” value [1] was 3.0. For the same molecule, the “Inhibition of increase in myocardial contractile force, relative activity” value [1] was 2.5, the LD50 at 24 h (in vivo) was 45 to 55 mg/kg and the ED50 [2, 4] was 0.72 µg/kg. For the same molecule, the ED50 [2, 5] was 3.5 µg/kg, the ED50 [2, 6] was 6.33 µg/kg and the “Inhibition of decrease in diastolic blood pressure, relative activity” value (“Inhibition of decrease … relative activity” below) ([2]; anesthetized dogs) was 1.3. The “Inhibition of increase in heart rate, relative activity” value ([2]; anesthetized dogs) was 3.0 and the “Inhibition of increase in myocardial contractile force, relative activity” value ([2]; anesthetized dogs) was 1.5.
With `CC(=NC(C)C)c1cc2cccc(OCC(O)CNC(C)C)c2o1` (stereo not shown) [Compound No. 1, 2-(1-isopropyliminoethyl)-7-(2-hydroxy-3-isopropylaminopropoxy)benzofuran] the “Inhibition of increase in heart rate ED 50” value [1] was 14 ng/mL, the “Inhibition of increase in myocardial contractile force ED 50” value [1] was 1.7 ng/mL and the “Inhibition of increase in heart rate, relative activity” value [1] was 7.1. The “Inhibition of increase in myocardial contractile force, relative activity” value [1] was 5.9, the LD50 at 24 h (in vivo) was 65 to 70 mg/kg and the ED50 [2, 4] was 0.3 µg/kg. The ED50 [2, 5] was 0.42 µg/kg, the ED50 [2, 6] was 0.6 µg/kg and the “Inhibition of decrease … relative activity” value ([2]; anesthetized dogs) was 3.1. For the same molecule, the “Inhibition of increase in heart rate, relative activity” value ([2]; anesthetized dogs) was 25.0 and the “Inhibition of increase in myocardial contractile force, relative activity” value ([2]; anesthetized dogs) was 15.9.
For `CCC(C)N=C(C)c1cc2cccc(OCC(O)CNC(C)CC)c2o1` (stereo not shown) [Compound No. 9, 2-(1-sec.-butyliminoethyl)-7-(2-hydroxy-3-sec.-butylaminopropoxy)benzofuran], the “Inhibition of increase in heart rate ED 50” value [1] was 60 ng/mL, the “Inhibition of increase in myocardial contractile force ED 50” value [1] was 4 ng/mL and the “Inhibition of increase in heart rate, relative activity” value [1] was 1.6. For the same molecule, the “Inhibition of increase in myocardial contractile force, relative activity” value [1] was 2.5, the LD50 at 24 h (in vivo) was 75 to 80 mg/kg and the ED50 [2, 4] was 0.16 µg/kg. The ED50 [2, 5] was 0.53 µg/kg, the ED50 [2, 6] was 0.73 µg/kg and the “Inhibition of decrease … relative activity” value ([2]; anesthetized dogs) was 6.0. The “Inhibition of increase in heart rate, relative activity” value ([2]; anesthetized dogs) was 20.0 and the “Inhibition of increase in myocardial contractile force, relative activity” value ([2]; anesthetized dogs) was 13.1.
For `CCC(C)N=C(C)c1cc2c(OCC(O)CNC(C)CC)cccc2o1` (stereo not shown) [Compound No. 10, 2-(1-sec.-butyliminoethyl)-4-(2-hydroxy-3-sec.-butylaminopropoxy)benzofuran], the “Inhibition of increase in heart rate ED 50” value [1] was 40 ng/mL, the “Inhibition of increase in myocardial contractile force ED 50” value [1] was 5.9 ng/mL and the “Inhibition of increase in heart rate, relative activity” value [1] was 2.5. For the same molecule, the “Inhibition of increase in myocardial contractile force, relative activity” value [1] was 1.7, the LD50 at 24 h (in vivo) was 60 to 65 mg/kg and the ED50 [2, 5] was 0.21 µg/kg. The ED50 [2, 6] was 3.95 µg/kg, the “Inhibition of decrease … relative activity” value ([2]; anesthetized dogs) was 23.5 and the “Inhibition of increase in heart rate, relative activity” value ([2]; anesthetized dogs) was 50.0. The “Inhibition of increase in myocardial contractile force, relative activity” value ([2]; anesthetized dogs) was 2.4.
In the case of `CCC(C)NCC(O)COc1cccc2cc(C(C)=O)oc12` (stereo not shown) [Compound No. 7, 2-acetyl-7-(2-hydroxy-3-sec.-butylaminopropoxy)benzofuran], the “Inhibition of increase in heart rate ED 50” value [1] was 67 ng/mL, the “Inhibition of increase in myocardial contractile force ED 50” value [1] was 4.8 ng/mL and the “Inhibition of increase in heart rate, relative activity” value [1] was 1.5. The “Inhibition of increase in myocardial contractile force, relative activity” value [1] was 2.0, the LD50 at 24 h (in vivo) was 75 to 80 mg/kg and the ED50 [2, 4] was 2.35 µg/kg. For the same molecule, the ED50 [2, 5] was 7.07 µg/kg, the ED50 [2, 6] was 5.59 µg/kg and the “Inhibition of decrease … relative activity” value ([2]; anesthetized dogs) was 0.4. The “Inhibition of increase in heart rate, relative activity” value ([2]; anesthetized dogs) was 1.5 and the “Inhibition of increase in myocardial contractile force, relative activity” value ([2]; anesthetized dogs) was 1.7.
In the case of `Cn1cc[nH]c1=S` [Mercazol, reference compound], the “Pulse rate after treatment, average” value ([3]; 12 patients, average before treatment 111.3, standard deviation 8.6, in beats/min (unit assumed)) was 100.2, the Pulse rate difference, average ([3]; 12 patients, standard deviation printed 0.6) was 12 beats/min and the Pulse rate difference ([3]; before minus after, per patient, in beats/min (unit assumed)) was 20 and 22 and 10 and 14 and 12 and 4 and 0. The “Pulse rate after treatment” value ([3]; per patient, in beats/min (unit assumed)) was 90 and 110 and 100 and 108 and 116.
In the case of `CCc1cc2c(C(C)=O)ccc(OCC(O)CNC(C)C)c2o1` (stereo not shown) [Compound No. 8, 2-ethyl-4-acetyl-7-(2-hydroxy-3-isopropylaminopropoxy)benzofuran], the “Inhibition of increase in heart rate ED 50” value [1] was 53 ng/mL, the “Inhibition of increase in myocardial contractile force ED 50” value [1] was 9.1 ng/mL and the “Inhibition of increase in heart rate, relative activity” value [1] was 1.9. For the same molecule, the “Inhibition of increase in myocardial contractile force, relative activity” value [1] was 1.1, the LD50 at 24 h (in vivo) was 120 to 125 mg/kg and the ED50 [2, 4] was 1.9 µg/kg. For the same molecule, the ED50 [2, 5] was 0.3 µg/kg, the ED50 [2, 6] was 6.4 µg/kg and the “Inhibition of decrease … relative activity” value ([2]; anesthetized dogs) was 0.5. For the same molecule, the “Inhibition of increase in heart rate, relative activity” value ([2]; anesthetized dogs) was 35.0 and the “Inhibition of increase in myocardial contractile force, relative activity” value ([2]; anesthetized dogs) was 1.5.
For `CC(=NC(C)C)c1cc2c(OCC(O)CNC(C)C)cccc2o1` (stereo not shown) [Compound No. 6, 2-(1-isopropyliminoethyl)-4-(2-hydroxy-3-isopropylaminopropoxy)benzofuran], the “Inhibition of increase in heart rate ED 50” value [1] was 14 ng/mL, the “Inhibition of increase in myocardial contractile force ED 50” value [1] was 8 ng/mL and the “Inhibition of increase in heart rate, relative activity” value [1] was 7.0. The “Inhibition of increase in myocardial contractile force, relative activity” value [1] was 1.3, the LD50 at 24 h (in vivo) was 45 to 50 mg/kg and the ED50 [2, 5] was 0.21 µg/kg. The ED50 [2, 6] was 5.93 µg/kg, the “Inhibition of decrease … relative activity” value ([2]; anesthetized dogs) was 30.2 and the “Inhibition of increase in heart rate, relative activity” value ([2]; anesthetized dogs) was 50.0. The “Inhibition of increase in myocardial contractile force, relative activity” value ([2]; anesthetized dogs) was 1.6.
For `CC(=O)c1cc2cccc(OCC(O)CNC(C)C)c2o1` (stereo not shown) [Compound No. 3, 2-acetyl-7-(2-hydroxy-3-isopropylaminopropoxy)benzofuran], the “Inhibition of increase in heart rate ED 50” value [1] was 40 ng/mL, the “Inhibition of increase in myocardial contractile force ED 50” value [1] was 5 ng/mL and the “Inhibition of increase in heart rate, relative activity” value [1] was 2.5. The “Inhibition of increase in myocardial contractile force, relative activity” value [1] was 2.0, the LD50 at 24 h (in vivo) was 100 to 105 mg/kg and the ED50 [2, 4] was 0.18 µg/kg. For the same molecule, the ED50 [2, 5] was 0.52 µg/kg, the ED50 [2, 6] was 3.4 µg/kg and the “Inhibition of decrease … relative activity” value ([2]; anesthetized dogs) was 5.3. For the same molecule, the “Inhibition of increase in heart rate, relative activity” value ([2]; anesthetized dogs) was 21.0 and the “Inhibition of increase in myocardial contractile force, relative activity” value ([2]; anesthetized dogs) was 2.8.
In the case of `CC(=O)c1cc2c(OCC(O)CNC(C)(C)C)cccc2o1` (stereo not shown) [Compound No. 2, 2-acetyl-4-(2-hydroxy-3-tert.-butylaminopropoxy)benzofuran], the “Inhibition of increase in heart rate ED 50” value [1] was 45 ng/mL, the “Inhibition of increase in myocardial contractile force ED 50” value [1] was 17 ng/mL and the “Inhibition of increase in heart rate, relative activity” value [1] was 2.2. The “Inhibition of increase in myocardial contractile force, relative activity” value [1] was 0.6, the LD50 at 24 h (in vivo) was 35 to 40 mg/kg and the ED50 [2, 4] was 0.92 µg/kg. The ED50 [2, 5] was 35.2 µg/kg, the ED50 [2, 6] was 8.62 µg/kg and the “Inhibition of decrease … relative activity” value ([2]; anesthetized dogs) was 1.0. For the same molecule, the “Inhibition of increase in heart rate, relative activity” value ([2]; anesthetized dogs) was 0.3 and the “Inhibition of increase in myocardial contractile force, relative activity” value ([2]; anesthetized dogs) was 1.1.
In the case of `CCOC(=O)c1cc2cccc(OCC(O)CNC(C)C)c2o1` (stereo not shown) [compound 5, 2-carbethoxy-7-(2-hydroxy-3-isopropylaminopropoxy)benzofuran], the “Inhibition of increase in heart rate ED 50” value [1] was 29 ng/mL, the “Inhibition of increase in myocardial contractile force ED 50” value [1] was 5.5 ng/mL and the “Inhibition of increase in heart rate, relative activity” value [1] was 3.5. For the same molecule, the “Inhibition of increase in myocardial contractile force, relative activity” value [1] was 1.8, the LD50 at 24 h (in vivo) was 50 to 55 mg/kg and the ED50 [2, 4] was 1.57 µg/kg. For the same molecule, the ED50 [2, 5] was 0.21 µg/kg, the ED50 [2, 6] was 9.5 µg/kg and the “Inhibition of decrease … relative activity” value ([2]; anesthetized dogs) was 0.6. For the same molecule, the “Inhibition of increase in heart rate, relative activity” value ([2]; anesthetized dogs) was 50.0 and the “Inhibition of increase in myocardial contractile force, relative activity” value ([2]; anesthetized dogs) was 1.0.
`CC(C)NCC(O)COc1cccc2ccccc12` (stereo not shown) [Propranolol, reference compound] gave an ED50 ([2]; read-out: Inhibition of decrease in diastolic blood pressure ED50) of 0.94 µg/kg, an ED50 ([2]; read-out: Inhibition of increase in heart rate ED50) of 10.6 µg/kg and an ED50 ([2]; read-out: Inhibition of increase in myocardial contractile force ED50) of 9.5 µg/kg.
